pIC50: −log10 of the molar value.
Tests used:
[1] = biological target: T1, human LXR alpha ligand binding domain (LXRα-LBD) (Homo sapiens, UniProt Q13133); assay: Radioligand binding assay (SPA), LXR alpha; details: LXRα-LBD on SPA beads, read-out: LXRalpha Binding IC50
T1 construct: human LXR alpha (aa 164 to 447); unspecified tag ('tagged versions'); made in house; host or cells: E. coli BL21 (pLysS)
T1 sequence (Q13133 164-447): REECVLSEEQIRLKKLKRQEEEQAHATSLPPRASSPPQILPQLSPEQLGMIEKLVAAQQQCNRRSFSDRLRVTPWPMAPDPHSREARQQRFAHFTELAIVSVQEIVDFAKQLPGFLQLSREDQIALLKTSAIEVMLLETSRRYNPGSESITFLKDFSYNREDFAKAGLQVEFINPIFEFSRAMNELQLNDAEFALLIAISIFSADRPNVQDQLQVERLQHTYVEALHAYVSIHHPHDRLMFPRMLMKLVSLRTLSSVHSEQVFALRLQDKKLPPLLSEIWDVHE
Procedure: (§1) The following tests were carried out in order to determine the activity of the compounds of the present invention. Background information on the performed assays can be found in: Nichols J S et al. “Development of a scintillation proximity assay for peroxisome proliferator-activated receptor gamma ligand binding domain”, Anal Biochem. 1998, 257: 112-119.
(§2) Mammalian expression vectors were constructed to express full-length human LXR alpha and LXR beta. Bacterial expression vectors were constructed to produce tagged versions of the ligand binding domains (LBD) of human LXR alpha (aa 164 to 447) and human LXR beta (aa 155 to 460). To accomplish this, the portions of the sequences encoding the LBDs were amplified from the full-length clones by PCR and then subcloned into the plasmid vectors. Final clones were verified by DNA sequence analysis (Willy et al., Genes Dev. 1995, 9:1033-45; Song et al., Proc Natl Acad Sci USA.1994, 91:10809-13).
(§3) Induction, expression, and purification of LBD proteins were performed in E. coli strain BL21 (pLysS) cells by standard methods (Ref: Current Protocols in Molecular Biology, Wiley Press, edited by Ausubel et al).
(§4) Radioligand Binding Assay
(§5) LXR alpha and LXR beta receptor binding were assayed in buffer consisting of 50 mM HEPES, pH 7.4, 10 mM NaCl, 5 mM MgCl2. For each 96-well reaction, 500 ng of LXRα-LBD or 700 ng of LXR beta-LBD proteins were bound to 80 μg or 40 μg SPA beads respectively, in a final volume of 50 μl by shaking. The resulting slurry was incubated for 1 h at RT and centrifuged for 2 min at 1300×g. The supernatant containing unbound protein was removed, and the semi-dry pellet containing the receptor-coated beads was re-suspended in 50 μl of buffer. […] All binding assays were performed in 96-well plates and the amount of bound ligand was measured on a Packard TopCount using OptiPlates (Packard). Dose response curves were measured within a range of concentration from 10^−10 M to 10^−4 M.

[2] = biological target: T2, human LXR beta ligand binding domain (LXR beta-LBD) (Homo sapiens, UniProt P55055); assay: Radioligand binding assay (SPA), LXR beta; details: LXR beta-LBD on SPA beads, read-out: LXRbeta Binding IC50
T2 construct: human LXR beta (aa 155 to 460); unspecified tag ('tagged versions'); made in house; host or cells: E. coli BL21 (pLysS)
T2 sequence (P55055 155-460): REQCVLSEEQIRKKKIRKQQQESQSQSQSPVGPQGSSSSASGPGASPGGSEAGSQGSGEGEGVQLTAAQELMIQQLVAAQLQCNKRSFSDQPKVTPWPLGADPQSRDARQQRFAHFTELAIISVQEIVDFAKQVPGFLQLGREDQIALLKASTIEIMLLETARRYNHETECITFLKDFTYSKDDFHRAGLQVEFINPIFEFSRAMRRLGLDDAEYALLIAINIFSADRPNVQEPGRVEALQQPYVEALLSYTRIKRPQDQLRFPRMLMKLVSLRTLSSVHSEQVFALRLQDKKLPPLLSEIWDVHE
Procedure: as §1, §2, §3, §4, §5

pIC50 [1]	pIC50 [2]	Structure (SMILES)
5.60	6.62	O=C(C1CN(S(=O)(=O)c2ccccc2)C(=O)N1c1ccccc1Cl)N1CCN(c2ncccc2Cl)CC1 (racemic) [Example 63, (RS)-1-Benzenesulfonyl-3-(2-chloro-phenyl)-4-[4-(3-chloro-pyridin-2-yl)-piperazine-1-carbonyl]-imidazolidin-2-one]
5.26	6.32	O=C(C1CN(S(=O)(=O)c2ccccc2)C(=O)N1C1CCCCC1)N1CCN(c2ncccc2C(F)(F)F)CC1 (racemic) [Example 39, (RS)-1-Benzenesulfonyl-3-cyclohexyl-4-[4-(3-trifluoromethyl-pyridin-2-yl)-piperazine-1-carbonyl]-imidazolidin-2-one]
6.59	7.00	Cc1ccc(C)c(N2CCN(C(=O)[C@@H]3CN(S(=O)(=O)c4ccccc4)C(=O)N3c3ccccc3Cl)CC2)c1 [Example 50, (S)-1-Benzenesulfonyl-3-(2-chloro-phenyl)-4-[4-(2,5-dimethyl-phenyl)-piperazine-1-carbonyl]-imidazolidin-2-one]

From US7625902B2, “Imidazolidinone derivatives” (Hoffmann-La Roche Inc., priority 2007, dated 2009)
